“Also recorded” adds a separate entry of the source. No end group written: not given here.
Columns and labels:
adult cardiomyocytes [1] = experiment: Cell contractility of isolated adult cardiomyocytes (video-based edge detection); set-up: species or system rat; conditions: for Effect on PMA-induced reduction in contractility (peak shortening, rates of contraction and relaxation): 1 μM peptide 45 min, then 1 μM PMA 15 min
Procedure: (§1) FIGS. 2a-2d represent the increase in cardiac contractility by the decoy peptides. Isolated adult cardiomyocytes were treated with 1 μM of indicated peptides for 45 min, and then with 1 μM of PMA for 15 min. Contractile parameters were then determined. FIGS. 2a and 2b show contractile parameters. Peak cell shortening, percentage of shortened cell length; −dL/dt, maximal rate of cell shortening; +dL/dt, maximal rate of cell relengthening. FIGS. 2c and 2d show average parameters of the transient Ca^2+ properties determined with Fura2/AM. Baseline [Ca^2+]i, baseline intracellular Ca^2+ levels; Δ[Ca^2+]i (340/380), increase in intracellular Ca^2+ levels in response to electric Stimuli; τ(ms), Ca^2+ transient decay rate. Approximately 500 cells were chosen for the contractility and Ca^2+ transient measurements were taken from eight individual hearts. #, P<0.05; *, P<0.01 compared to control; error bars represent SD.
(§2) Ventricular myocytes were isolated from SD rat hearts as previously described with minor modifications. Male rats of 8-12 weeks of age (250-320 g) were used. In brief, rats were anesthetized by the inhalation of isofluran (0.5%) for 5 min. The heart was quickly removed from the chest and the aorta was retrogradely perfused at 37° C. for 3 min with calcium-free Tyrode buffer (137 mM NaCl, 5.4 mM KCl, 1 mM MgCl2, 10 mM glucose, 10 mM HEPES [pH 7.4], 10 mM 2, 3-butanedione monoxime, and 5 mM taurine) gassed with 100% O2. The enzymatic digestion was then initiated by adding collagenase type B (0.35 U/ml; Roche) and hyaluronidase (0.1 mg/ml; Worthington) to the perfusion solution. When the heart became swollen after 10 min of digestion, the left ventricle was quickly removed, cut into several chunks, and further digested in a shaker (60-70 rpm) for 10 min at 37° C. in the same enzyme solution. The supernatant containing the dispersed myocytes was then filtered through a cell strainer (100 μm in pore size, BD Falcon) and gently centrifuged at 500 rpm for 1 min. Extracellular Ca^2+ was incrementally added back to a concentration of 1.25 mM over a span of 30 min to avoid the Ca^2+ paradox. This procedure usually yielded ≥80% viable rod-shaped ventricular myocytes with clear sarcomere striations. Myocytes with obvious sarcolemmal blebs or spontaneous contractions were discarded.
(§3) The mechanical properties of ventricular myocytes were assessed using a video-based edge detection system (IonOptix), as previously described. In brief, laminin-coated coverslips with attached cells were placed in a chamber mounted on the stage of an inverted microscope (Nikon Eclipse TE-100F) and perfused (about 1 ml/min at 37° C.) with Tyrode buffer (137 mM NaCl, 5.4 mM KCl, 1 mM CaCl2, 1 mM MgCl2, 10 mM glucose, and 10 mM HEPES [pH 7.4]). The cells were field-stimulated at a frequency of 3 Hz (30 V) using a STIM-AT stimulator/thermostat placed on a HLD-CS culture chamber/stim holder (Cell Micro Controls). […] Changes in cell length during shortening and relengthening were captured and analyzed using soft edge software (IonOptix). The cardiomyocytes were loaded with 0.5 μM Fura2-AM (Molecular Probes), a Ca^2+-sensitive indicator, for 15 min at 37° C. Fluorescence emissions were recorded simultaneously with the contractility measurements using Myocyte calcium and contractility recording system (IonOptix). Cardiomyocytes were exposed to light emitted by a 75 W halogen lamp through either a 340 or 380 nm filter while being field-stimulated as described above. Fluorescence emissions were detected between 480 and 520 nm by a photomultiplier tube after initial illumination at 340 nm for 0.5 ms and then at 380 nm for the duration of the recording protocol. The 340 nm excitation scan was then repeated at the end of the protocol, and qualitative changes in the intracellular Ca^2+ concentration were inferred from the ratio of the Fura fluorescence intensity at both wavelengths.

adult cardiomyocytes [2] = experiment: Intracellular Ca2+ transient measurement (Fura2-AM) in isolated adult cardiomyocytes; type: cell-based, rat; conditions: for Effect on PMA-induced defects in intracellular Ca2+ handling (Ca2+ transient amplitude, time constant of decay): 1 μM peptide 45 min, then 1 μM PMA 15 min, Fura2/AM
Procedure: as §1, §2, §3

[3] = system: PP1-mediated dephosphorylation of PLB; experiment: PLB phosphorylation (Western blot) in PMA-treated isolated adult cardiomyocytes; type: cell-based, rat; conditions: 1 μM peptide 45 min, then 1 μM PMA 15 min; for Blocking of PMA-induced dephosphorylation of PLB at Ser16 and Thr17 (elevating the phosphorylation levels of PLB): Western blot
Procedure: FIGS. 1c-1d represent the increase in PLB phosphorylation by the decoy peptides (FIG. 1c) and shortened decoy peptides (FIG. 1d). Isolated adult cardiomyocytes were treated with 1 μM of indicated peptides for 45 min, and then with 1 μM of PMA for 15 min. Western blots of cell lysates were then probed with antibodies against phospho-PLB (S^16), phospho-PLB (T^17), total PLB, or GAPDH. The decoy peptides contain the following sequences: ψPLB-SE, RAETIEMPQ (SEQ ID NO:1); ψPLB-SD, RADTIEMPQ (SEQ ID NO:3); ψPLB-TE, RASEIEMPQ (SEQ ID NO:2). The shortened decoy peptides contain the following sequences: ψPLB-8-mer, AETIEMPQ (SEQ ID NO:4); ψPLB-7-mer, RAETIEM (SEQ ID NO:5); ψPLB-6-mer, RAETIE (SEQ ID NO:6); ψPLB-5-mer: RAETI (SEQ ID NO:7). PMA, phorbol 12-myristate 13-acetate.
The decoy peptides were derived from the PLB protein sequence (SEQ ID NO:10) surrounding the phosphorylation sites Ser^16 and Thr^17: RAS^16T^17IEMPQ. The peptides were conjugated via a cystein-cystein bond at their N termini to the cell penetrating peptide TAT (YGRKKRRQRRR (SEQ ID NO:11)) to facilitate uptake into cells. The peptides used in this invention were as follows: ψPLB-wt, RASTIEMPQ (SEQ ID NO:8); ψPLB-SE, RAETIEMPQ (SEQ ID NO:1); ψPLB-TE, RASEIEMPQ (SEQ ID NO:2); ψPLB-SD, RADTIEMPQ (SEQ ID NO:3). In addition, shortened ψPLB-SE peptides were also tested: 8-mer, AETIEMPQ (SEQ ID NO:4); 7-mer, RAETIEM (SEQ ID NO:5); 6-mer, RAETIE (SEQ ID NO:6); 5-mer, RAETI (SEQ ID NO:7). All of the peptides were synthesized and modified by AnyGen (Gwangju, Korea) and dissolved in distilled water to a stock concentration of 1 mM. Peptides were >95% pure. The decoy peptides were treated for 1 h at a final concentration of 1 μM.
as §2
(§4) Heart lysates (50 μg) in SDS sample buffer were run on a SDS-PAGE gel and then transferred to a PVDF membrane (Bio-Rad). The membrane was blocked with a 5% skim milk solution and then incubated overnight with antibodies directed against PLB (Affinity Bioreagents), phospho-PLB (Ser^16, Cell Signaling), phospho-PLB (Thr^17, Badrilla), SERCA2a (Santa Cruz), Caspase 3 (Cell Signaling), or GAPDH (Santa Cruz). The membranes were then incubated with a secondary antibody conjugated to horseradish peroxidase (Jackson Immuno Research) and developed using the Western Lighting chemiluminescence reagent (Perkin Elmer).

rat hearts = experiment: Langendorff isolated perfused heart, ischemia/reperfusion ex vivo, left ventricular developed pressure; conditions: 20 min no-flow ischemia, 30 min reperfusion with 1 μM peptide
Procedure: (§5) FIGS. 3a-3b represent the postischemic cardiac performance ex vivo. […] The changes in left ventricular developed pressure (LVDP) are shown. n=4. *, P<0.01 compared to TAT; error bars represent SEM. […] Western blots probed with antibodies against phospho-PLB (S^16), phosphor-PLB (T^17), total PLB, Caspase 3, or GAPDH are shown.
Rats were anesthetized by inhalation of isofluran (0.5%) for 5 min. The heart was quickly removed and placed in cold oxygenated Tyrode solution (137 mM NaCl, 5.4 mM KCl, 1 mM MgCl2, 10 mM glucose, 1 mM CaCl2, 10 mM HEPES [pH 7.4], 100% O2). The aorta was cannulated and perfused by the Langendorff method with oxygenated Tyrode solution at constant pressure (65 mmHg, temperature 37±0.2° C.). A latex water-filled balloon was inserted into the left ventricular chamber and connected to a pressure transducer (AD Instruments) for continuous measurement of heart performance. Heart rate, left ventricular developed pressure (LVDP), and the first derivatives of LV pressure (LV +dP/dt max and LV −dP/dt max) were all recorded using PowerLab Chart Systems (AD Instruments). The balloon volume was adjusted in 250-300 μl to result in a measured end diastolic pressure in the range of 6-10 mmHg. After a 30 min stabilization period, the hearts were subjected to 20 min of no-flow to induce global ischemia, followed by 30 min of reperfusion. […]

PLB = experiment: Western blot of heart lysates after ischemia/reperfusion: phospho-PLB; set-up: species or system rat; conditions: heart lysates at the end of reperfusion with 1 μM peptide
Procedure: as §5, §4
(§6) Rats were anesthetized by inhalation of isofluran (0.5%) for 5 min. […] Heart rate, left ventricular developed pressure (LVDP), and the first derivatives of LV pressure (LV +dP/dt max and LV −dP/dt max) were all recorded using PowerLab Chart Systems (AD Instruments). The balloon volume was adjusted in 250-300 μl to result in a measured end diastolic pressure in the range of 6-10 mmHg. […]

Caspase 3 = experiment: Western blot of heart lysates after ischemia/reperfusion: Caspase 3; set-up: species or system rat; conditions: heart lysates at the end of reperfusion with 1 μM peptide
Procedure: as §5, §4, §6

[4] = 1 μM PMA 15 min, no decoy peptide

Compound: CCCCCCCCCCCCCC(=O)O[C@@H]1[C@@H](C)[C@@]2(O)[C@@H](C=C(CO)C[C@]3(O)C(=O)C(C)=C[C@@H]23)[C@@H]2C(C)(C)[C@]12OC(C)=O [PMA, phorbol 12-myristate 13-acetate, reference compound]
- Contractility (peak shortening, rates of contraction and relaxation) (adult cardiomyocytes [1]; [4]): significantly reduced
- Ca2+ transient amplitude (adult cardiomyocytes [2]; [4]): significant reduction
- Time constant of the Ca2+ transient decay (adult cardiomyocytes [2]; [4]): significant increase

Compound: RASEIEMPQ (not fully specified (N-terminus); also: TAT coupled) [ψPLB-TE]
- Blocking of PMA-induced dephosphorylation of PLB at Ser16 and Thr17 (elevating the phosphorylation levels of PLB) [3]: blocked dephosphorylation but was less effective than ψPLB-SE; also recorded: not as effective as ψPLB-SE
- Effect on PMA-induced reduction in contractility (peak shortening, rates of contraction and relaxation) (adult cardiomyocytes [1]): no or only marginal effects
- Effect on PMA-induced defects in intracellular Ca2+ handling (Ca2+ transient amplitude, time constant of decay) (adult cardiomyocytes [2]): negligible or marginal

Compound: RASTIEMPQ (not fully specified (N-terminus); also: TAT coupled via disulfide) [ψPLB-wt]
- Effect on PMA-induced reduction in contractility (peak shortening, rates of contraction and relaxation) (adult cardiomyocytes [1]): no or only marginal effects
- Effect on PMA-induced defects in intracellular Ca2+ handling (Ca2+ transient amplitude, time constant of decay) (adult cardiomyocytes [2]): negligible or marginal

Compound: RAETIE [ψPLB-6-mer]
- Blocking of PMA-induced dephosphorylation of PLB at Ser16 and Thr17 (elevating the phosphorylation levels of PLB) [3]: only ψPLB-5-mer was ineffective
- Effect on PMA-induced reduction in contractility (peak shortening, rates of contraction and relaxation) (adult cardiomyocytes [1]): as effective as ψPLB-SE
- Effect on PMA-induced defects in intracellular Ca2+ handling (Ca2+ transient amplitude, time constant of decay) (adult cardiomyocytes [2]): as effective as ψPLB-SE

Compound: RAETI [ψPLB-5-mer]
- Blocking of PMA-induced dephosphorylation of PLB at Ser16 and Thr17 (elevating the phosphorylation levels of PLB) [3]: ineffective

Compound: YGRKKRRQRRR (Human immunodeficiency virus) [TAT, reference compound]
- Effect on left ventricular developed pressure after ischemia/reperfusion (rat hearts): no effects

Compound: RADTIEMPQ (not fully specified (N-terminus); also: TAT coupled) [ψPLB-SD]
- Blocking of PMA-induced dephosphorylation of PLB at Ser16 and Thr17 (elevating the phosphorylation levels of PLB) [3]: as effective as ψPLB-SE
- Effect on PMA-induced reduction in contractility (peak shortening, rates of contraction and relaxation) (adult cardiomyocytes [1]): as effective as ψPLB-SE
- Effect on PMA-induced defects in intracellular Ca2+ handling (Ca2+ transient amplitude, time constant of decay) (adult cardiomyocytes [2]): as effective as ψPLB-SE

Compound: RAETIEMPQ (not fully specified (N-terminus); also: TAT coupled) [ψPLB-SE]
- Phosphorylation levels of PLB after treatment compared with basal levels [3]: slightly but significantly higher than the basal levels
- Blocking of PMA-induced dephosphorylation of PLB at Ser16 and Thr17 (elevating the phosphorylation levels of PLB) [3]: significantly blocked; also recorded: prevented dephosphorylation
- Effect on PMA-induced reduction in contractility (peak shortening, rates of contraction and relaxation) (adult cardiomyocytes [1]): completely prevented
- Effect on PMA-induced defects in intracellular Ca2+ handling (Ca2+ transient amplitude, time constant of decay) (adult cardiomyocytes [2]): completely reversed
- Left ventricular developed pressure after ischemia/reperfusion (rat hearts; I/R alone 37-44 mmHg, pre-ischemia 80-100 mmHg): 73-78 mmHg
- Phosphorylation of PLB at Ser16 after ischemia/reperfusion (PLB): significantly recovered
- I/R-induced activation of cell death-related Caspase 3 (Caspase 3): completely reversed

Compound: AETIEMPQ (not fully specified (N-terminus); also: TAT coupled) [ψPLB-8-mer]
- Blocking of PMA-induced dephosphorylation of PLB at Ser16 and Thr17 (elevating the phosphorylation levels of PLB) [3]: only ψPLB-5-mer was ineffective

Compound: RAETIEM [ψPLB-7-mer]
- Blocking of PMA-induced dephosphorylation of PLB at Ser16 and Thr17 (elevating the phosphorylation levels of PLB) [3]: only ψPLB-5-mer was ineffective

Source: patent publication USRE48636E1, “Decoy peptides inhibiting protein phosphatase 1-mediated dephosphorylation of phospholamban” (BethphaGen Inc., priority 2012, dated 2021)
